From ChEMBL document CHEMBL5346969 (J Med Chem, 2023)
The source made the active and inactive calls. The calls are words filed in the database; no cut-off is given here.

Key:
[1] = Toxicity in immunodeficient BALB/c mouse assessed as bone marrow suppression by measuring HGB level at 20 mg/kg, ip for 14 days by whole blood analysis; assay type: organism-based; details: in vivo, 336 h, time 14 day
[2] = Toxicity in immunodeficient BALB/c mouse assessed as bone marrow suppression by measuring RBC level at 20 mg/kg, ip for 14 days by whole blood analysis; assay type: organism-based, Erythrocyte; details: in vivo, 336 h, time 14 day
[3] = target: T1, Phospholipid hydroperoxide glutathione peroxidase GPX4 (Homo sapiens) (UniProt P36969); experiment: Binding affinity to GPX4 in human MDA-MB-231 cells assessed as reduction in thermal stability at 1 uM incubated for 2 hrs by CESTA analysis; assay type: cell-based
T1 sequence (whole entry): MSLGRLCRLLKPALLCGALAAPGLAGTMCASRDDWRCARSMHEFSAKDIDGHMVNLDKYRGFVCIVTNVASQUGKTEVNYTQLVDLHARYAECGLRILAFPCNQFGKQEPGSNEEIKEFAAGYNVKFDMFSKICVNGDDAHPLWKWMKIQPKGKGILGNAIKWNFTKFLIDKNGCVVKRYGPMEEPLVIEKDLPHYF

[4] = Tmax in rat at 10 mg/kg, ip and measured upto 24 hrs by LC-MS/MS analysis; assay type: ADME, organism-based; details: in vivo
[5] = target: T1, Phospholipid hydroperoxide glutathione peroxidase GPX4 (Homo sapiens); experiment: Binding affinity to GPX4 (35 to 48 residues) (unknown origin) at Sec46 residue assessed as increase in mass of single charged y3+ ion at 100 uM incubated for 1.5 hrs by SDS-PAGE based LC-MS/MS analysis
MDA-MB-231 [6] = experiment: Induction of ferroptosis in siRNA mediated GPX4 knockdown human MDA-MB-231 cells with assessed as change in GPX4 protein expression level at 20 nM incubated for 8 hrs by Western blot analysis; assay type: functional, cell-based
MDA-MB-231 [7] = experiment: Induction of ferroptosis in siRNA mediated GPX4 knockdown human MDA-MB-231 cells with assessed as change in FTH1 protein expression level at 20 nM incubated for 8 hrs by Western blot analysis; assay type: functional, cell-based
MDA-MB-231 [8] = experiment: Induction of ferroptosis in siRNA mediated GPX4 knockdown human MDA-MB-231 cells with assessed as cell viability at 10 nM incubated for 10 hrs by MTT assay; assay type: functional, cell-based
MDA-MB-231 [9] = experiment: Induction of ferroptosis in siRNA mediated GPX4 knockdown human MDA-MB-231 cells with assessed as change in ACSL4 protein expression level at 20 nM incubated for 8 hrs by Western blot analysis; assay type: functional, cell-based
[10] = target: T1, Phospholipid hydroperoxide glutathione peroxidase GPX4 (Homo sapiens); experiment: Binding affinity to GPX4 (unknown origin) at Cys66 residue assessed as change in mass of single charged b5+ ion at 100 uM incubated for 1.5 hrs by SDS-PAGE based LC-MS/MS analysis
[11] = target: T1, Phospholipid hydroperoxide glutathione peroxidase GPX4 (Homo sapiens); experiment: Binding affinity to GPX4 (unknown origin) at Cys66 residue assessed as change in mass of single charged y2+ ion at 100 uM incubated for 1.5 hrs by SDS-PAGE based LC-MS/MS analysis
[12] = Acute toxicity in ICR mouse assessed as lethality at 200 to 488 mg/kg,ip and measured after 14 days; assay type: organism-based; details: in vivo, dose 200-488 mg/kg, time 14 day

SMILES: COc1cc(N(C(=O)CBr)c2ccc3c(c2)OCCO3)cc(OC)c1F
- Activity [1]: Toxic
- Activity [2]: Toxic

SMILES: COc1cc(N(C(=O)CCl)c2ccc3c(c2)OCCO3)cc(OC)c1F
- Activity [3]: Active
- Tmax [4]: 51 min
- Activity [5]: Active
- Activity (MDA-MB-231 [6]): inactive
- Activity (MDA-MB-231 [7]): inactive
- Activity (MDA-MB-231 [8]): inactive
- Activity (MDA-MB-231 [9]): inactive
- Activity [10]: inactive
- Activity [11]: inactive
- LD50 at 336 h [12]: 338 mg/kg
